From paper PMC9069992 (Journal of the American Chemical Society, 2022)

How the values were obtained:
[1] = system: GA of HeLa cells; assay: CLSM / single cell imaging of fluorescence accumulation at Golgi apparatus; type: cell-based, Homo sapiens; details: for accumulation at / targeting of GA (in words): CLSM, fluorescence at GA, Figures S16, S30A, S33, S35-S44; for effect of thioesterase inhibitor on GA accumulation of C6-NBD-Ceramide: Figures S11, S12; for effect of thioesterase inhibitor on accumulation of 1 at GA: by itself or in combination, Figures S4, S9, S10
[2] = Critical micelle concentration; type: physicochemical; details: Figure 1C
[3] = TEM of self-assembly; type: physicochemical; details: 20 μM, Figure S43
[4] = molecular target: T1, carboxylesterase (CES1) (Homo sapiens, UniProt P23141); assay: Cell free hydrolysis by carboxylesterase; type: biochemical; details: cell free assay, Figure S13
T1 sequence (P23141 18-567): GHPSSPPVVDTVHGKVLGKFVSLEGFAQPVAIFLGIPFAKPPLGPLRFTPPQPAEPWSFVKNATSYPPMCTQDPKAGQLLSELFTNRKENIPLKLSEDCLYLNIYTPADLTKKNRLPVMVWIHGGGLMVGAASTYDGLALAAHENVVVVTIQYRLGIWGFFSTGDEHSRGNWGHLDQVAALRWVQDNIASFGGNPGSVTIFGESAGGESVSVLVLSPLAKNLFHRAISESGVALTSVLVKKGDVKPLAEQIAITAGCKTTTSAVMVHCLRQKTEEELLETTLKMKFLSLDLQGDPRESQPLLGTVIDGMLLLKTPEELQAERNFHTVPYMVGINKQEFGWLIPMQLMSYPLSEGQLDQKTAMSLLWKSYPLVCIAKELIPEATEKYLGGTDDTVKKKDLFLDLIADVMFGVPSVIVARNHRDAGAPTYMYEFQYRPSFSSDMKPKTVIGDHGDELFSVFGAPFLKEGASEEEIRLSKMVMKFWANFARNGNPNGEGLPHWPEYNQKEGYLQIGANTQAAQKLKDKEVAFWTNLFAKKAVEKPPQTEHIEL

[5] = system: NRAS; assay: ICC staining of NRAS distribution in MCF-7 cells; type: cell-based, Homo sapiens; details: MCF-7, 10 μM, 30 min, ICC staining with NRAS antibody, Figure 3C
[6] = system: GA of HeLa, Saos-2, HEK293, MCF-7, HS-5, SJSA-1, HepG2, B16F10, S2 cells; assay: CLSM of GA targeting in various cell lines; type: cell-based, Homo sapiens, Mus musculus, Drosophila; details: 10 μM, 8 min, Figure 2B
[7] = system: neutrophils (polymorphonuclear leukocytes); assay: GA localization in primary cells; type: cell-based; details: Figure S24

For CCCCCCCCCCCCC/C=C/[C@@H](O)[C@H](CO)NC(=O)CCCCCNc1ccc([N+](=O)[O-])c2nonc12 [C6-NBD-ceramide, C6-NBD-Ceramide, reference compound], the “accumulation at / targeting of GA (in words)” value [1] was “shows dim fluorescence over 16 minutes”.
With CN(CCCCCCNc1ccnc2cc(Cl)ccc12)CCCCCCNc1ccnc2cc(Cl)ccc12 [DC661, reference compound] the “effect of thioesterase inhibitor on GA accumulation of C6-NBD-Ceramide” value [1] was “cannot block the GA accumulation” and the “effect of thioesterase inhibitor on accumulation of 1 at GA” value [1] was “efficiently block 1 accumulating at GA”.
With CC(C)(C)C1CCN(C(=O)n2ncc(C(O)(c3ccccc3)c3ccccc3)n2)CC1 [ML211, reference compound] the “effect of thioesterase inhibitor on GA accumulation of C6-NBD-Ceramide” value [1] was “cannot block the GA accumulation” and the “effect of thioesterase inhibitor on accumulation of 1 at GA” value [1] was “efficiently block 1 accumulating at GA”.
In the case of CC(=O)SCCNC(=O)[C@@H](Cc1ccccc1)NC(=O)[C@@H](Cc1ccccc1)NC(=O)CCNc1ccc([N+](=O)[O-])c2nonc12 [compound 1], the “critical micelle concentration (CMC)” value [2] is reported as 2.1 µM, the “accumulation at / targeting of GA (in words)” value [1] is reported as “accumulates primarily at GA” and the “time after addition until GA becomes distinguishable” value ([1]; Figures S1, S2, video S1) is reported as “less than 1 min”. The “dependence on clathrin-mediated endocytosis at 2 μM” value ([1]; HeLa treated with chlorpromazine, 2 μM of 1, Figure S8) was “hardly”, the “dependence on clathrin-mediated endocytosis at 10 μM” value ([1]; HeLa treated with chlorpromazine, 10 μM of 1, Figure S8) was “only slightly” and the “time until fluorescence plateaus outside GA” value ([1]; HeLa, 10 μM, 60 min, single cell imaging analysis, Figure 1B) was over 45 min. The “enhancement of fluorescence intensity at GA from 1 minute to 8 minutes” value ([1]; HeLa, Figure S15) was “at least 3 times”, the “self-assembly seen by TEM (in words)” value [3] was “self-assembles into nanoparticles and nanofibers” and the “hydrolysis by carboxylesterase (CES1) (in words)” value [4] was “able to catalyze the hydrolysis of 1”. For the same molecule, the “intracellular distribution of NRAS after pretreatment (in words)” value [5] was “relocates from mainly plasma membrane to overwhelmingly GA”, the “targeting GA of various cells (in words)” value [6] was “able to target GA of various cells from different organisms” and the “entry into primary cells and localization (in words)” value [7] was “localizes at GA”.
